Assays:
[1] = tested on: MCF-7 cells; experiment: MTT cell growth assay, MCF-7 cells; type: cell-based, human; settings: 15 uM on day 1, half the initial dose on days 2-4; 3′-propylamino oligonucleotides; vs water control; FIG. 1D
Procedure: Cells were plated at low density ([…] cells per well, depending on cell line) in the appropriate serum-supplemented medium in 96-well plates (one plate per MTT assay time point) and grown under standard conditions of cell culture. The following day (day 1) oligonucleotide, or water as control, was added to the culture medium to give a final concentration of 15 uM. Further oligonucleotide, equivalent to half the initial dose, was added to the culture medium on days two, three and four.
Cells were assayed using the MTT assay (Morgan (1998) Methods. Mol. Biol. 79, 179-183) on days one, three, five, seven and nine after plating. The culture medium was not changed throughout the duration of the experiment (which was the time required for untreated cells to grow to confluence). Experiments were performed in triplicate and bars represent the standard error of the data.

[2] = Detection of G-quartets by UV thermal denaturation/renaturation; type: physicochemical; settings: absorbance at 295 nm; FIG. 4
Procedure: Oligonucleotides were resuspended in Tm buffer (20 mM Tris HCl, pH 8.0, 140 mM KCl, 2.5 mM MgCl2) at a concentration such that A260=0.6 (molar concentrations ranged from […]). Samples were annealed by boiling for five minutes and allowing to cool slowly to room temperature and overnight incubation at 4° C. Thermal denaturation/renaturation experiments were carried out using an Amersham Pharmacia Biotech Ultrospec 2000 instrument equipped with a Peltier effect heated cuvette holder and temperature controller (Amersham Pharmacia Biotech). Absorbance at 295 nm was monitored over a temperature range of 25-95 or 20-90° C. at a heating/cooling rate of 0.5° C./min. To investigate the formation of G-quartet structures by the G-rich oligonucleotides, a U.V. melting technique described by […] et al. (1998) FEBS Lett. 435, 74-78 was used. This method relies on the fact that dissociation of G-quartets leads to a decrease in absorbance at 295 nm and is reported to give a more reliable indication of intramolecular G-quartet formation than measurement at 260 nm.

[3] = molecular target: T1, GRO-binding protein/nucleolin (HeLa nuclear extracts) (Homo sapiens, UniProt P19338); experiment: EMSA of 32P-labeled oligonucleotides with HeLa nuclear extracts; settings: 32P-labeled oligonucleotide, FIG. 6A
T1 construct: HeLa nuclear extracts used in EMSAs were purchased from Promega Inc. (bandshift grade); host or cells: HeLa nuclear extract (bandshift grade), purchased
T1 sequence (P19338 whole entry): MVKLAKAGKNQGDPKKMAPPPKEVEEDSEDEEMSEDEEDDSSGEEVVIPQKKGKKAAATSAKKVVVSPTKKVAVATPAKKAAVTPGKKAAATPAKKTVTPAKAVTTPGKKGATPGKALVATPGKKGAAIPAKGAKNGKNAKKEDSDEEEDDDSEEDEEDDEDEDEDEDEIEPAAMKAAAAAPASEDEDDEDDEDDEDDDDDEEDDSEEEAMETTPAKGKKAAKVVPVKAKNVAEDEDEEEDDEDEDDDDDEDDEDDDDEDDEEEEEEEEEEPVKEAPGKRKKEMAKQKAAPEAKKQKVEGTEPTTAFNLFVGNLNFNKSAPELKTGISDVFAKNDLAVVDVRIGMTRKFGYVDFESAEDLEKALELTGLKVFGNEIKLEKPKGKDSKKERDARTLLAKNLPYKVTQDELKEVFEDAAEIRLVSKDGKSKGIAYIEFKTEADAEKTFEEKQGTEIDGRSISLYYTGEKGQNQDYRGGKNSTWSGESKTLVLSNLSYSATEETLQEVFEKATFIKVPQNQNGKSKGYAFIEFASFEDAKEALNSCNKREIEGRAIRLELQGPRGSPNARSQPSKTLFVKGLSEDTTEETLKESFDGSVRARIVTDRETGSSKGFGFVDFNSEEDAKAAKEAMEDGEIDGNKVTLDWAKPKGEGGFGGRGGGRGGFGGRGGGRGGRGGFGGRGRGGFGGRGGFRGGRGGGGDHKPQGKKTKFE
Procedure: Oligonucleotides were 5′-labeled with 32p using T4 kinase. Labeled oligonucleotide (final concentration 1 nM, approximately 50,000 cpm) was preincubated for thirty minutes at 37° C. either alone or in the presence of unlabeled competitor oligonucleotide. Nuclear extracts were added, and the sample was incubated a further thirty minutes at 37° C. Both the preincubation and binding reactions were carried out in Buffer A (20 mM Tris. HCl pH 7.4, 140 mM KCl, 2.5 mM MgCl2, 1 mM dithiothreitol, 0.2 mM phenylmethyl sulfonyl fluoride and 8% (v/v) glycerol). Electrophoresis was carried out using 5% polyacrylamide gels in TBE buffer (90 mM Tris borate, 2 mM EDTA).
HeLa nuclear extracts used in EMSAs were purchased from Promega Inc. (bandshift grade). Nuclear and cytoplasmic extracts from MDA-MB-231 cells were prepared using the protocol described in F. M. Ausubel et al. Ausubel et al. (Eds.) (1996) Current Protocols in Molecular Biology, Wiley, N.Y., Section 12.1. Plasma membrane proteins were prepared from MDA-MB-231 cells using a method previously described. Yao et al. (1996) Biochemical Pharmacology 51, 431-436; Naito et al. (1988) J. Biol. Chem. 263, 11887-11891.
To investigate further the mechanism of the growth modulatory effects, binding of the oligonucleotides to cellular proteins was examined. […]

[4] = molecular target: T2, 106 kDa nuclear protein (p106, GRO-binding protein/nucleolin) (Homo sapiens, UniProt P19338); experiment: Southwestern blot of HeLa nuclear extracts; settings: 32P-labeled oligonucleotide, 4° C.; FIG. 6D
T2 construct: HeLa nuclear extracts used in EMSAs were purchased from Promega Inc. (bandshift grade); host or cells: HeLa nuclear extract (bandshift grade), purchased
T2 sequence (P19338 whole entry): as above
Procedure: Nuclear extracts were electrophoresed on a 8% polyacrylamide-SDS gel and transferred to polyvinylidene difluoride (PVDF) membrane by electroblotting using a Tris glycine/methanol (10% v/v) buffer. Immobilized proteins were denatured and renatured by washing for thirty minutes at 4° C. with 6 M guanidine. HCl followed by washes in 1:1, 1:2 and 1:4 dilutions of 6M guanidine in HEPES binding buffer (25 mM HEPES pH 7.9, 4 mM KCl, 3 mM MgCl2). The membrane was blocked by washing for one hour in a 5% solution of non-fat dried milk (NDM) in binding buffer.
Hybridization of the labeled oligonucleotide (1-4×10^6 cpm) took place for two hours at 4° C. in HEPES binding buffer supplemented with 0.25% NDM, 0.05% Nonidet P […] salmon sperm DNA and […] of an unrelated, mixed sequence 35-mer oligonucleotide (5′-[…] CTTCCTTCCTCTCCA-3′SEQ ID No: 19). Membranes were washed in binding buffer and visualized by autoradiography.
The molecular weight of the nuclear protein was more accurately determined by Southwestern blotting. HeLa nuclear extracts were electrophoresed on an 8% polyacrylamide-SDS gel and transferred to a PVDF membrane. The membrane was blocked and cut into strips. Each strip was incubated at 4° C. with a 32P-labeled G-rich oligonucleotide in the presence of unrelated unlabeled double stranded and single stranded DNA to block non-specific binding.

Row | Substance | growth of MCF-7 cells (MTT) [1] | G-quartet formation (UV annealing curve) [2] | protein-oligonucleotide complex band (EMSA) [3] | hybridization to protein band at 106 kDa (Southwestern blot) [4]
1 | 5′-GTTGTTTGG GGTGGT-3′ (GTTGTTTGGGGTGGT; DNA, backbone not given here; further chemistry not fully specified) [GRO15A] | modulated proliferation | suggestive of G-quartet formation | intense | hybridized to a single protein band at 106 kDa
2 | 5′-TTTGGTGGTGGTGG TTGTGGTGGTGGTGG-3′ [GR029A] | modulated proliferation | clearly indicating the presence of G-quartets | intense | hybridized to a single protein band at 106 kDa

Reference: patent publication US8114850B2, “Antiproliferative activity of G-rich oligonucleotides and method of using same to bind to nucleolin” (Advanced Cancer Therapeutics, LLC, priority 1999, dated 2012)
